From BigSolDB 2.1

Cc1cc(C)nc(Nc2ccccc2)n1
solubility (mole fraction)
Settings | 283.15 K | 288.15 K | 293.15 K | 298.15 K | 303.15 K | 308.15 K | 313.15 K | 318.15 K | 323.15 K
in cyclohexane | 0.00583 | 0.00751 | 0.0095 | 0.0123 | 0.0157 | 0.0213 | 0.0304 | 0.0435 | 0.0614
in ethanol | 0.0146 | 0.0175 | 0.0211 | 0.0267 | 0.0332 | 0.0438 | 0.0577 | 0.0785 | 0.112
in isobutanol | 0.0148 | 0.0178 | 0.0236 | 0.028 | 0.0345 | 0.0454 | 0.0652 | 0.0937 | 0.13
in isopropanol | 0.0103 | 0.0126 | 0.016 | 0.0198 | 0.025 | 0.0324 | 0.0429 | 0.0611 | 0.0861
in methanol | 0.0138 | 0.0162 | 0.0193 | 0.0245 | 0.0311 | 0.0418 | 0.0568 | 0.0765 | 0.107
in n-butanol | 0.0193 | 0.0251 | 0.0317 | 0.0389 | 0.0498 | 0.0638 | 0.0813 | 0.112 | 0.145
in n-propanol | 0.0179 | 0.0215 | 0.0264 | 0.0316 | 0.037 | 0.0481 | 0.0682 | 0.0971 | 0.131
